Results taken from patent publication US4985445A, “Cancer cell metastasis inhibitors and novel compounds” (Meiji Seika Kaisha, Ltd., priority 1988, dated 1991).
Structures can show the parent of a compound that is named as a salt. Where two headings read alike, the source gives them in different places.

What was measured:
[1] = system: B16 subline of high pulmonary metastatic potential; assay: Inhibition of pulmonary metastasis of B16 subline pretreated with compound and injected i.v. into BDF1 mice; assay type: in vivo, murine; mouse BDF1; conditions: for Inhibition of metastasis to the lungs (in words): B16 subline, BDF1 mice
Description: Based on the method described priviously (Method in Cancer Research, 15, 399-439, 1978), a subline of high metastatic potential (high pulmonary colonization) was selected from murine melanoma B16 by repeating the i.v. transplantation of the tumor cells in BDF1 mice and the isolation of pulmonary metastatic clones.
Evaluation of the metastasis inhibiting activity was performed based on the method described previously (Proc. Natl Acad. Sci. USA, 83, 1752-1756, 1986, Cancer Research, 46, 858-862, 1986).
Firstly, the B16 subline of high metastatic potential was inoculated into Dulbecco's ME medium (DME medium) supplemented with 10% bovine fetal serum and the compound represented by general formula (I) described above was added thereto.
The B16 subline of high pulmonary metastatic potential was inoculated into DME medium supplemented with 10% bovine fetal serum and 30, 100 or 300 μg/ml of N (3-phenylpropyl)-1-deoxynojirimycin was added thereto followed by incubation at 37° C. for 3 days in the presence of 5% CO2.
Inhibition of metastasis was examined in a manner similar to Test Example 2 except that N-(3-phenyl-2-propenyl)-1-deoxy-nojirimycin and N-(3-p-chlorophenyl-3-methyl-2-propenyl)-1-deoxynojirimycin were used instead of N-(3-phenylpropyl)-1-deoxynojirimycin in Test Example 2. In this test example, however, 2.5×10^5 cells each of the B16 subline were transplanted to 3 mice for each group.
The B16 subline of high pulmonary metastatic potential was inoculated into DME medium supplemented with 10% bovine fetal serum and 30 μg/ml of N-(4-phenoxy-trans-2-butenyl)-1-deoxynojirimycin was added thereto followed by incubation at 37° C. for 3 days in the presence of 5% CO2. […] The number of colonies of the B16 subline formed on the surface of and in the lung was counted.
Inhibition of metastasis was examined in a manner similar to Test Example 5 except that N-(2-phenoxyethyl)-1-deoxynojirimycin was used instead of N-(4-phenoxy-trans-2-butenyl)-1-deoxynojirimycin in Test Example 5.
The B16 sibline of high pulmonary metastatic potential was inoculated into DME medium supplemented with 10% bovine fetal serum and 10 μg/ml of D-glucaro-δ-lactam calcium salt was added thereto followed by incubation at 37° C. for 3 days in the presence of 5% CO2. […] The number of the colonies formed on the surface of and in the lung was counted.
Inhibition of metastasis was examined in a manner similar to Test Example 8 except that D-glucaro-δ-lactam methyl ester and D-glucaro-δ-lactam ethyl ester were used instead of D-glucaro-δ-lactam calcium salt in Test Example 8.
The B16 subline of high pulmonary metastatic potential was inoculated into DME medium supplemented with 10% bovine fetal serum and 10 μg/ml of 2,6-di-O-(acetylsalicyloyl)-D-gluco-δ-lactam was added thereto followed by incubation at 37° C. for 3 days in the presence of 5% CO2.
The B16 subline of high pulmonary metastatic potential was inoculated into DME medium supplemented with 10% bovine fetal serum and 30 μg/ml of 6-O-triphenylmethyl-D-gluco-δ-lactam was added thereto followed by incubation at 37° C. for 3 days in the presence of 5% CO2.
The B16 subline of high pulmonary metastatic potential was inoculated into DME medium supplemented with 10% bovine fetal serum and 30 μg/ml of 1-deoxynojirimycin was added thereto followed by incubation at 37° C. for 3 days in the presence of 5% CO2.

[2] = Acute toxicity (LD50) by mice; conditions: mouse, in vivo
[3] = system: murine tumor cell line L 929; assay: Cytotoxic activity against L 929 (growth observed with inverted microscope, 4 days); assay type: cell-based; conditions: for Growth: 4 days;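 on growth: + means growth and ± means marked inhibition and - means cell death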
Description: The B16 subline of high pulmonary metastatic potential and murine tumor cell line L 929 were cultured in DME medium supplemented with 10% bovine fetal serum at 37° C. in the presence of 5% CO2.
The B16 subline of high pulmanary metastatic potential and murine tumor cell line L 929 were cultured in DME medium supplemented with 10% bovine fetal serum at 37° C. in the presence of 5% CO2.

[4] = system: B16 subline of high pulmonary metastatic potential; conditions: 3 days;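 further: + means growth and ± means marked inhibition and - means cell death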
Description: (§1) The B16 subline of high pulmonary metastatic potential and murine tumor cell line L 929 were cultured in DME medium supplemented with 10% bovine fetal serum at 37° C. in the presence of 5% CO2. Then, cells were detached from the Petri dish with trypsin-EDTA solution. The B16 subline and L 929 were suspended in the medium described above in 1×10^4 cells/ml and 1×10^3 cells/ml, respectively. Each suspension, 150 μl, was added to 50 μl of N-(3-phenylpropyl)-1-deoxynojirimycin solution or Adriamycin (control) solution. Incubation was performed for 3 days for the B16 subline and for 4 days for L 929 strain.
as §1, with “of N-(4-phenoxy-trans-2-butenyl)-1-deoxynojirimycin” for “of N-(3-phenylpropyl)-1-deoxynojirimycin”, “days in” for “days for”, “L 929.” for “L 929 strain.”
as §1, with “of D-glucaro-δ-lactam calcium salt” for “of N-(3-phenylpropyl)-1-deoxynojirimycin”, “(control) solutions.” for “(control) solution.”, “days in” for “days for”, “L 929.” for “L 929 strain.”
The B16 subline of high pulmonary metastatic potential and murine tumor cell line L 929 were cultured in DME medium supplemented with 10% bovine fetal serum at 37° C. in the presence of 5% CO2. Then, cells were detached from the Petri dish with trypsin-EDTA solution. The B16 subline and L 929 were suspended in the medium described above in 1×10^4 cells/ml and 1×10^3 cells/ml, respectively. Each suspension, 150 μl, was added to 50 μl of 2,6-di-O-(1-(p-chlorobenzoyl)-5-methoxy-2-methylindole-3-acetyl)-D-gluco-δ-lactam solution or and Adriamycin (control) solutions. Incubation was performed for 3 days in the B16 subline and for 4 days in L 929.
The B16 subline of high pulmanary metastatic potential and murine tumor cell line L 929 were cultured in DME medium supplemented with 10% bovine fetal serum at 37° C. in the presence of 5% CO2. Then, cells were detached from the Petri dish with trypsin-EDTA solution. The B16 subline and L 929 were suspended in the medium described above in 1×10^4 cells/ml and 1×10^3 cells/ml, respectively. Each suspension, 150 μl, was added to 50 μl of 6-O-triphenylmethyl-D-gluco-δ-lactam solution or Adriamycin (control) solutions. Incubation was performed for 3 days in the B16 sibline and for 4 days in L 929.
The B16 subline of high pulmonary metastatic potential was inoculated into DME medium supplemented with 10% bovine fetal serum and 30 μg/ml of 1-deoxynojirimycin was added thereto followed by incubation at 37° C. for 3 days in the presence of 5% CO2. […] Next, the cells were detached from the Petri dish with trypsin-EDTA solution. The cells were suspended in PBS- in 1×10^6 cells/ml as viable cells. This suspension, 0.1 ml, was intravenously injected in the tail vein of the mouse BDF1 (8 week age, male; 1 group, 3 mice). After feeding for 14 days, the mouse was sacrificed to excise the lungs. The number of colonies of the B16 subline on the surface of and in the lungs was counted.

[5] = Table 10, 30 μg/ml, None 82 ± 11.2

Structure (SMILES): OC[C@H]1NC[C@H](O)[C@@H](O)[C@@H]1O [1-Deoxynojirimycin, 1-deoxynojirimycin]
- Inhibition of metastasis to the lungs (in words) [1]: the number of colonies on the surface of and in the lungs was markedly inhibited
- Pulmonary Metastasis (Mean ± Standard Deviation) ([1]; Table 15, 30 μg/ml, 3 mice, None 119 ± 37): 31 ± 11 no.

Structure (SMILES): CC(=O)Oc1ccccc1C(=O)OC[C@H]1NC(=O)[C@H](OC(=O)c2ccccc2OC(C)=O)[C@@H](O)[C@@H]1O [2,6-di-O-(acetylsalicyloyl)-D-gluco-δ-lactam]
- Inhibition of metastasis to the lungs (in words) [1]: markedly inhibited
- Pulmonary Metastasis (Mean ± Standard Deviation) ([1]; Table 12, 10 μg/ml, 3 mice, None 53 ± 22.4): 11.2 ± 3.5 no.
- LD50 ([2]; ip): > 500 mg/kg

Structure (SMILES): COc1ccc2c(c1)c(CC(=O)OC[C@H]1NC(=O)[C@H](OC(=O)Cc3c(C)n(C(=O)c4ccc(Cl)cc4)c4ccc(OC)cc34)[C@@H](O)[C@@H]1O)c(C)n2C(=O)c1ccc(Cl)cc1 [2,6-di-O-[1-(p-chlorobenzoyl)-5-methoxy-2-methylindole-3-acetyl]-D-gluco-δ-lactam]
- Cytotoxicity (in words) ([3]; L 929, even at a concentration as high as 10 μg/ml): did not show marked cytotoxity
- Growth ([3]; Table 11, L 929, 3 μg/ml): +
- Growth ([3]; Table 11, L 929, 10 μg/ml): +
- Growth ([3]; Table 11, L 929, 30 μg/ml): +
- Growth ([4]; Table 11, B16 subline, 10 μg/ml): +

Structure (SMILES): COc1cccc2c1C(=O)c1c(O)c3c(c(O)c1C2=O)C[C@@](O)(C(=O)CO)C[C@@H]3O[C@H]1C[C@H](N)[C@H](O)[C@H](C)O1 [Adriamycin, reference compound]
- Growth ([3]; Table 2, L 929, 1 μg/ml, control): -
- Growth ([3]; Table 5, L 929, 1 μg/ml, control): -
- Growth ([3]; Table 8, L 929, 1 μg/ml, control): -
- Growth ([3]; Table 11, L 929, 1 μg/ml, control): -
- Growth ([3]; Table 13, L 929, 1 μg/ml, control): -
- Growth ([4]; Table 2, B16 subline, 0.1 μg/ml, control): -
- Growth ([4]; Table 5, B16 subline, 0.1 μg/ml, control): -
- Growth ([4]; Table 8, B16 subline, 0.1 μg/ml, control): -
- Growth ([4]; Table 11, B16 subline, 0.1 μg/ml, control): -
- Growth ([4]; Table 13, B16 subline, 0.1 μg/ml, control): -

Structure (SMILES): O=C(O)[C@H]1NC(=O)[C@H](O)[C@@H](O)[C@@H]1O [D-Glucaro-δ-lactam calcium salt, D-glucaro-δ-lactam calcium salt]
- Cytotoxicity (in words) ([3]; L 929, even at a concentration as high as 30 μg/ml): did not show marked cytotoxicity
- Growth ([3]; Table 8, L 929, 10 μg/ml): +
- Growth ([3]; Table 8, L 929, 30 μg/ml): +
- Inhibition of metastasis to the lungs (in words) [1]: markedly inhibited
- Pulmonary Metastasis, Mouse 1 ([1]; Table 9, 10 μg/ml, 14 days): 7 no.
- Pulmonary Metastasis, Mouse 2 ([1]; Table 9, 10 μg/ml, 14 days): 4 no.
- Pulmonary Metastasis, Mouse 3 ([1]; Table 9, 10 μg/ml, 14 days): 0 no.
- Pulmonary Metastasis (Mean ± Standard Deviation) ([1]; Table 9, 10 μg/ml, 14 days, None 69 ± 1.0): 3.7 ± 3.5 no.
- Pulmonary Metastasis, % ([1]; Table 9, 10 μg/ml, None = 100): 5.4%
- Growth ([4]; Table 8, B16 subline, 10 μg/ml): +
- Growth ([4]; Table 8, B16 subline, 30 μg/ml): +

Structure (SMILES): CCOC(=O)[C@H]1NC(=O)[C@H](O)[C@@H](O)[C@@H]1O [D-Glucaro-δ-lactam ethyl ester, D-glucaro-δ-lactam ethyl ester]
- Inhibition of metastasis to the lungs (in words) [1]: markedly inhibited
- Pulmonary Metastasis (Mean ± Standard Deviation) [1, 5]: 13 ± 5.4 no.

Structure (SMILES): COC(=O)[C@H]1NC(=O)[C@H](O)[C@@H](O)[C@@H]1O [D-Glucaro-δ-lactam methyl ester, D-glucaro-δ-lactam methyl ester]
- Inhibition of metastasis to the lungs (in words) [1]: markedly inhibited
- Pulmonary Metastasis (Mean ± Standard Deviation) [1, 5]: 21 ± 8.5 no.
- LD50 ([2]; iv): > 5000 mg/kg
- LD50 ([2]; po): > 10000 mg/kg

Structure (SMILES): O=C(O)[C@H]1NC(=O)[C@H](O)[C@@H](O)[C@@H]1O [D-Glucaro-δ-lactam sodium salt]
- LD50 ([2]; iv): > 3000 mg/kg
- LD50 ([2]; po): > 5000 mg/kg

Structure (SMILES): OC[C@@H]1[C@@H](O)[C@H](O)[C@@H](O)CN1CCOc1ccccc1 [N-(2-Phenoxyethyl)-1-deoxynojirimycin, N-(2-phenoxyethyl)-1-deoxynojirimycin]
- Inhibition of metastasis to the lungs (in words) [1]: markedly inhibited
- Pulmonary Metastasis (Mean ± Standard Deviation) ([1]; Table 7, 100 μg/ml, None 86 ± 22.1): 7 ± 2.1 no.

Structure (SMILES): CC(=CCN1C[C@H](O)[C@@H](O)[C@H](O)[C@H]1CO)c1ccc(Cl)cc1 [N-(3-p-chlorophenyl-3-methyl-2-propenyl)-1-deoxynojirimycin]
- Inhibition of metastasis to the lungs (in words) [1]: markedly inhibited

Structure (SMILES): OC[C@@H]1[C@@H](O)[C@H](O)[C@@H](O)CN1CC=Cc1ccccc1 [N-(3-phenyl-2-propenyl)-1-deoxynojirimycin]
- Inhibition of metastasis to the lungs (in words) [1]: markedly inhibited
- Pulmonary Metastasis (Mean ± Standard Deviation) ([1]; Table 4, 30 μg/ml, 2.5×10^5 cells, 3 mice, None 109 ± 32.0): 16.8 ± 12.6 no.
- LD50 ([2]; ip): > 500 mg/kg
